The values that follow come from patent US20230302073A1, “BOTANICAL EXTRACTION” (Performance Labs Pte. Ltd., priority 2022, published 2023).

Data set [1] is described as follows: DPPH radical scavenging (antioxidant) assay. In kind it is biochemical. The conditions noted are these: for IC50: DPPH, reference standards and yerba mate extracts by solvent (Table 10).
Protocol: The free radical scavenging activity of all the extracts was evaluated by 1,1-diphenyl-2-picryl-hydrazyl (DPPH) according to a previously reported method (Shen et al., 2010).
Thirty mg of dried extract of each sample was diluted in 10 ml of methanol, obtaining a concentration of 3 mg/mL as stock solution. From this stock solution were obtained the concentrations of 1.5, 0.75; 0.375; 0.1875; 0.09375; 0.046875; 0.0234275; and 0.01171825 mg/mL. Ascorbic acid, rutin, chlorogenic acid as pure reference standards were used as a positive control and dissolved in methanol to make the stock solution with the same concentration of extract solution.
DPPH (7.89 mg) was weighed on a chemical balance with a minimum weighing limit of 10 μg or smaller. Thereafter, it was dissolved in HPLC grade methanol to obtain a constant volume by filling 100 ml of a measuring flask (0.2 mM DPPH). Then further dilute this solution to 0.1 mM. The absorbance of a DPPH solution is empirically known to decrease with time until approximately 1 hr after preparation. Therefore, it was kept in dark for 2 hr until the absorbance stabilized.
The DPPH solution was stored in the dark at room temperature during the assay, and used up on the day of the preparation. 0.3 mL of each sample concentration and positive control was added to 2.7 mL of 0.1 mM DPPH solution. Reaction occurred inside tubes covered with aluminum paper, in a dark environment at 25° C. The mixtures were shaken vigorously and allowed to stand at room temperature for 30 minutes. Then the absorbance was measured at 517 nm using a microplate reader (Varioskan LUX, ThermoFisher). Control sample was prepared containing the same volume without any extract and reference ascorbic acid; methanol was used as blank and % scavenging of the DPPH free radical was measured using the following equation:
DPPH scavenging effect (% inhibition)={(Ac−As)/Ac)*100}
Where, Ac=absorbance of DPPH alone, As=absorbance of DPPH along with different concentrations of extracts.
The measurements were done at eight points of concentration. The measurement for and analytical sample solution at each concentration was repeated three times.
The IC50 of each analytical sample was calculated according to the following procedure: Inhibition ratio were plotted against the sample concentrations at all six points and the respective regression line (y=ax+b) was drawn. The regression line was not required to pass through the origin. In this step, we verified that all of the measurement points were on the regression line. […] When Y in the regression equation was substituted with 50, X (sample concentration) was calculated.
This value was obtained from the results of calculations using linear regression analysis. […]
For data set [2] the following is noted: in choline chloride and glycerol; cited from earlier work.
For data set [3] the following is noted: adults; cited from earlier work.

Values after ≈ are worked out from the molar mass of the structure shown.

In data set [1], `O=C1O[C@H]([C@@H](O)CO)C(O)=C1O` [ascorbic acid] registered an IC50 of 446.70 µg/mL (≈ 2540 µM). `Cn1c(=O)c2c(ncn2C)n(C)c1=O` [caffeine, 1,3,7-trimethylxanthine]: the “contribution to the extract's antioxidant property” value in data set [1] (correlation of DPPH IC50 with total CQAs, with or without caffeine) was “no contribution”. As to `Cn1cnc2c1c(=O)[nH]c(=O)n2C` [theobromine, 3,7-dimethylxanthine], the “solubility relative to water” value in data set [2] is given as approximately 32 times. As to `O=C(/C=C/c1ccc(O)c(O)c1)O[C@@H]1CC(O)(C(=O)O)C[C@@H](OC(=O)/C=C/c2ccc(O)c(O)c2)C1O` (stereo partly drawn) [3,5-diCQA, 3,5-dicaffeoylquinic acid], the IC50 in data set [1] is 185.68 µg/mL (≈ 360 µM). For `C[N+](C)(C)CCO` [choline], in data set [3], the “daily upper limit, highest level of intake unlikely to cause harm” value was 3,500 mg/day. Consider `O=C(/C=C/c1ccc(O)c(O)c1)O[C@H]1[C@H](O)C[C@](O)(C(=O)O)C[C@H]1OC(=O)/C=C/c1ccc(O)c(O)c1` [4,5-diCQA, 4,5-dicaffeoylquinic acid], for which, in data set [1], the IC50 is 199.68 µg/mL (≈ 387 µM).
